The test system of experiment [1] is orthopoxviruses, including variola. The settings on record: cited from earlier work.
The next experiment deals with SKOV3.A2. The settings on record: cited from earlier work.
For experiment [2], the system named is C3H/HeJ mice (H-2^k); antibodies against the PGCC(95–104) epitope peptide. The settings on record: mouse, in vivo.
The test system is the same in experiment [3]. The note with it: mouse, in vivo. The source holds these as a separate data set.
In another experiment the test system is SJL/J (H-2s) mice. The settings on record: mouse, in vivo; cited from earlier work.
A further experiment deals with mice. The note with it: mouse, in vivo; cited from earlier work.

Read-outs that look alike come from different tables or passages of the source. Where a SMILES comes first, the peptide text is derived from it. [ ]: non-standard residue; d: D form. Nle = CCCC[C@H](N)C(=O)O; ava = not defined here

Regarding `Nc1ccn(C[C@@H](CO)OCP(=O)(O)O)c(=O)n1` [Cidofivir], the activity against orthopoxviruses entry in experiment [1] is listed as “shows activity”.
Regarding `CCCC[C@@H](C=O)NC(=O)[C@H](CC(C)C)NC(=O)[C@H](CC(C)C)NC(C)=O` [acetyl-Leu-Leu-norleucinal] (Ac-Leu-Leu-[Nle]-aldehyde), the “presentation of the CTL epitope Her-2/neu(369–377)” value in the experiment with SKOV3.A2 is “inhibited”.
In the case of “Ac-LRMK-ava-IAYLKQATAK-NH2 (Ac-LRMK[ava]IAYLKQATAK-NH2; reading uncertain; also: printed as Ac-LRMK-ava-IAYLKQATAK-NH2) [Ii-Key/PGCC]”, in experiment [2], the “antibody titers against PGCC epitope” value was “Significantly greater antibody titers”. Besides, in experiment [3], the “Antibody induction (ELISA), Dilution^−1 1620” value is 0.071; the “Antibody induction (ELISA), Dilution^−1 4860” value is 0.024; the “antibody titers against PGCC epitope” value is given as “Significantly greater antibody titers”.
As to HCLGKWLGHPDKFVGI [PL139–154], the “mice with severe clinical and histological EAE” value with SJL/J (H-2s) mice is given as 3 of 20.
Regarding MOG35–55, the “encephalitogenic potential (specific T-cell responses, EAE)” value in the experiment on mice is “induced specific T-cell responses and EAE”.

(Values after US7179645B2 (priority 2002, dated 2007).)
